Assays:
human BLT2 = biological target: T1, human BLT2 (Homo sapiens, UniProt Q9NPC1); experiment: LTB4-induced increase in intracellular calcium ion concentration in CHO cells expressing human BLT2 (Fluo-3, Flexstation); assay type: cell-based; conditions: compound 10 μM final, LTB4 100 nM final
T1 construct: expressed in transfected cells; host or cells: CHO cells
T1 sequence (Q9NPC1 1-358): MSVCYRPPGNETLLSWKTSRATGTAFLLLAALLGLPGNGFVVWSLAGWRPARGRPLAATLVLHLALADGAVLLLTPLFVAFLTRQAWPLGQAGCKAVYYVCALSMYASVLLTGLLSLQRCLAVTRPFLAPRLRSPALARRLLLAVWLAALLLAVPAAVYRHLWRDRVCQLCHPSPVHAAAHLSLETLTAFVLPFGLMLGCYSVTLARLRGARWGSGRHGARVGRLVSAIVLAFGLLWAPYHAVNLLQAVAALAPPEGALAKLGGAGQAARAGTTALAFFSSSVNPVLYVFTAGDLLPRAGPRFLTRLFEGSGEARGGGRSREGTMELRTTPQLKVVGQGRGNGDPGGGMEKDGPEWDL
Procedure: CHO cells habouring a gene encoding human BLT1 or human BLT2 and functionally expressing the receptor were seeded in a 96 well plate at 4×10^4 cells/well, and cultured at 37° C. for 60 min. The culture supernatant was removed and a loading buffer (100 μl) containing 4 μM Fluo-3 (manufactured by Dojindo), 0.04% pluoronic acid (manufactured by Sigma) and 1% serum was added. The mixture was culture at 37° C. for 30 min to introduce Fluo-3 into the cells. After culture, the cells were washed with a buffer, and a buffer containing various compounds (10 μM (final concentration)) was added, and then 100 nM (final concentration) of LTB4 was added. Changes in the intracellular calcium ion concentration were measured with Flexstation (manufactured by Molecular Devices Corporation) as increase in the fluorescence intensity (area under a curve in a time-course graph of fluorescence intensity in 10 min measurement). As a positive control of BLT1 and BLT2 antagonists, ZK158252 was used.

LTB4 receptor = experiment: TXB2 release from guinea pig eosinophils stimulated with LTB4 (LTB4 receptor antagonist activity); assay type: cell-based; conditions: 10^−3 M test compound (37.5 μl) added to 300 μl cell suspension, then 10^−7 M LTB4 (37.5 μl), 37° C. 15 min, positive control 100, negative control 0, N.D. = TXB2 concentration at measurement limit or less
Procedure: The LTB4 receptor antagonist activity of the test compound was examined using, as an index, thromboxane B2 (TXB2) released when stimulating eosinophil of guinea pig with LTB4.
Based on the method described in Japanese Journal of Pharmacology, vol. 70, p. 337-345 (1996) etc., eosinophils of guinea pig were prepared. A cell suspension (300 μl, 1.25×10^6 cells/ml) was placed in a 5 ml polypropylene test tube and, after incubation at 37° C. for 5 min., 10^−3 M test compound (37.5 μl) dissolved in 0.1% DMSO aqueous solution was added and the cells were continuously cultured for 5 min. Then, 10^−7 M LTB4 (37.5 μl) was added to induce the reaction and the cells were incubated at 37° C. for 15 min. The reaction was quenched in ice water, and the culture was centrifuged at 4° C., 3000 rpm for 10 min. The obtained supernatant was prepared as a sample for TXB2 measurement, and preserved at −80° C. before use for the measurement. The quantitation of TXB2 was performed using a TXB2 enzyme immunoassay kit (manufactured by Cayman Chemical Company). The release ratio (%) of TXB2 from the eosinophils was determined by the following formula: release ratio (%) of TXB2=[(average value of test compound administration group−average value of negative control group)/(average value of positive control group−average value of negative control group)]×100
As used herein, the positive control group means a group to which stimulation with LTB4 was applied but the same volume of a medium was given instead of the test compound, and the negative control group means a group to which stimulation with LTB4 was not applied, the same volume of a medium was given instead of LTB4, and the same volume of a medium was given instead of the test compound. When the release ratio of TXB2 is smaller than 0, it means that the measured TXB2 concentration was lower than that of the negative control group. When the TXB2 concentration in the sample was the measurement limit or less, N.D. is indicated.

Structure (SMILES)	Suppressive effect on increase in intracellular calcium ion concentration compared with ZK158252 (in words) (human BLT2)	melting point [°C]	Amount of TXB2 release (%) (LTB4 receptor)
CCOC(=O)CCCOc1cccc2cc(/C(C)=C/C(=O)N(CC)CC)oc12 [Example 224, Ethyl (E)-4-[2-(2-diethylcarbamoyl-1-methylvinyl)benzofuran-7-yloxy]butyrate]	almost of the same level as or not less than that by ZK158252		
COc1cccc2cc(/C(Cl)=C/C=C/C(=O)N(C(C)C)C(C)C)oc12 [Example 142, (2E,4Z)-5-chloro-5-(7-methoxybenzofuran-2-yl)penta-2,4-dienoic acid diisopropylamide]	almost of the same level as or not less than that by ZK158252	140.1 to 142	
COc1ccc2oc(-c3csc(N=CN(C)C)n3)c(-c3ccc(Cl)cc3)c2c1 [Example 219, N′-{4-[3-(4-chlorophenyl)-5-methoxybenzofuran-2-yl]thiazol-2-yl}-N,N-dimethylformamidine]	almost of the same level as or not less than that by ZK158252	142.7 to 144.3	
COc1ccc2oc(-c3csc(NC(=O)/C(C#N)=C(/C)O)n3)c(-c3ccc(Cl)cc3)c2c1 [Example 222, (Z)-2-cyano-3-hydroxy-2-butenoic acid {4-[3-(4-chlorophenyl)-5-methoxybenzofuran-2-yl]thiazol-2-yl}amide]	almost of the same level as or not less than that by ZK158252	229.5 to 231	
CCN(CC)C(=O)/C=C(\C)c1ccc(OC(C)c2ccccc2)c2oc(C(C)=O)cc12 (stereo not shown) [Example 1, (E)-3-[2-acetyl-7-(1-phenylethoxy)benzofuran-4-yl]-N,N-diethyl-2-butenamide]		70.8 to 73	0.42
C/C=C/C(=O)NC(C)c1cc2cccc(OC)c2o1 (stereo not shown) [Example 130, (E)-[1-(7-methoxybenzofuran-2-yl)ethyl]-2-butenamide]		128.7 to 130.2	35.44
CC(=O)c1oc2ccc(Br)cc2c1NC(=O)/C=C/c1ccccc1 [Example 114, (E)-N-(2-acetyl-5-bromobenzofuran-3-yl)-3-phenylacrylamide]		180.2 to 181.1	51.42
COc1ccc2c(NC(=O)/C=C/c3ccccc3)c(C(C)=O)oc2c1 [Example 120, (E)-N-(2-acetyl-6-methoxybenzofuran-3-yl)-3-phenylacrylamide]		142 to 144.5	1.32
CC(=O)c1oc2ccc(/C(C)=C/C(=O)N3CCN(Cc4ccccc4)CC3)cc2c1N [Example 19, (E)-3-(2-acetyl-3-aminobenzofuran-5-yl)-1-(4-benzylpiperazin-1-yl)-2-buten-1-one]		144 to 148.3	48.63
COc1cccc2cc(C(C)NC(=O)/C=C/c3ccccc3)oc12 (stereo not shown) [Example 132, (E)-N-[1-(7-methoxybenzofuran-2-yl)ethyl]-3-phenylacrylamide]		154.5 to 156.5	14.05
CCN(CC)C(=O)/C=C(\C)c1cc2c(Br)ccc(OCCCC(=O)O)c2o1 [Example 36, (E)-4-[4-bromo-2-(2-diethylcarbamoyl-1-methylvinyl)benzofuran-7-yloxy]butyric acid]		125.5 to 127	−0.301
CCN(CC)C(=O)/C=C(\C)c1ccc2oc(C(C)=O)c(NC(=O)/C(C#N)=C(/C)O)c2c1 [Example 94, N-{2-acetyl-5-[(E)-2-diethylcarbamoyl-1-methylvinyl]benzofuran-3-yl}-2-cyano-3-hydroxy-(Z)-2-butenamide]		169.3 to 171	−0.1
COc1cccc(NC(=O)/C=C(\C)c2cc3c(S(=O)(=O)NCCc4ccc(OC)c(OC)c4)ccc(OCCCCl)c3o2)c1 [Example 51, (E)-3-{7-(3-chloropropoxy)-4-[2-(3,4-dimethoxyphenyl)ethylsulfamoyl]benzofuran-2-yl}-N-(3-methoxyphenyl)-2-butenamide]		162.2 to 164.5	38.93
COc1cccc(NC(=O)/C=C/C=C(\Cl)c2cc3cc(Br)ccc3o2)c1 [Example 54, (2E,4Z)-5-(5-bromobenzofuran-2-yl)-5-chloropenta-2,4-dienoic acid (3-methoxyphenyl)amide]		204.3 to 207.1	60.6
CC(=O)c1cc2c(/C(C)=C/C(=O)N3CCN(c4ccccc4)CC3)ccc(OC(c3ccccc3)c3ccccc3)c2o1 [Example 6, (E)-3-(2-acetyl-7-benzhydryloxybenzofuran-4-yl)-1-(4-phenylpiperazin-1-yl)-2-buten-1-one]		152 to 160	38.93
COc1ccc(CCNC(=O)/C=C/C=C(\Cl)c2cc3cc(Br)ccc3o2)cc1OC [Example 55, (2E,4Z)-5-(5-bromobenzofuran-2-yl)-5-chloropenta-2,4-dienoic acid [2-(3,4-dimethoxyphenyl)ethyl]amide]		161.3 to 162.1	53.91
O=C(/C=C/c1ccccc1)Nc1c(C(=O)O)oc2ccccc12 [Example 121, (E)-3-(3-phenylacryloylamino)benzofurane-2-carboxylic acid]		197.8 to 200.2	5.77
CCOC(=O)CCCOc1cccc2cc(/C(C)=C/C(=O)NCC(=O)OCC)oc12 [Example 40, Ethyl (E)-4-{2-[2-(ethoxycarbonylmethylcarbamoyl)-1-methylvinyl]benzofuran-7-yloxy}butyrate]		96.2 to 98.5	−0.18
CC(=O)c1cc2c(/C(C)=C/C(=O)N3CCN(c4ccccc4)CC3)ccc(OC(C)c3ccccc3)c2o1 (stereo not shown) [Example 5, (E)-3-[2-acetyl-7-(1-phenylethoxy)benzofuran-4-yl]-1-(4-phenylpiperazin-1-yl)-2-buten-1-one]		79 to 84.6	81.6
CC(=O)c1cc2c(/C(C)=C/C(=O)N3CCOCC3)ccc(OC(C)c3ccccc3)c2o1 (stereo not shown) [Example 9, (E)-3-[2-acetyl-7-(1-phenylethoxy)benzofuran-4-yl]-1-morpholino-2-buten-1-one]		173.9 to 175.4	0.68
C/C=C/C(=O)Nc1c(C(=O)OCC)oc2ccccc12 [Example 118, Ethyl (E)-3-methyl-acryloylaminobenzofurane-2-carboxylate]		143.2 to 145.6	73.84
COc1cccc(NC(=O)/C=C(\C)c2cc3cccc(OC(c4ccccc4)c4ccccc4)c3o2)c1 [Example 38, (E)-3-(7-benzhydryloxybenzofuran-2-yl)-N-(3-methoxyphenyl)-2-butenamide]		167.2 to 168.2	91.73

From patent US7638540B2, “Benzofuran compound and medicinal composition containing the same” (The New Industry Research Organization, priority 2003, dated 2009)
